One series can be described thus: in vivo. The settings on record: dog.
For series [1] the following is noted: dog, in vivo, 480 min.
Description: (§1) The experiments were carried out on male beagle dogs, each roughly 10 kg in weight. […] The dogs were restrained in a dog sling. Approximately 10 mg of propranolol was administered nasally to each dog by spraying an appropriate amount of the present formulations containing propranolol into both nostrils of the dog using a metered dose dispenser (typically 2 sprays over a two minute period). The amount of drug administered nasally was obtained by weighing the dispenser before and after spraying.
(§2) Blood samples were withdrawn at desired intervals from each dog through a cannula inserted in the cephalic vein. The blood samples were centrifuged immediately after the collection and the plasma samples were stored frozen until assayed. The assay for propranolol consisted of HPLC separation and UV/fluorescence detection.
(§3) The area under the curve (AUC) has been normalized to the amount of propranolol administered.

Structures are written as SMILES.

Description for in vivo: as §1, §2, §3

One may read the Tmax as the time from dosing to the highest level. In general, Cmax refers to the maximum level reached in the sampled fluid or tissue. Usually bioavailability stands for the share of a dose that reaches the circulation, judged against a reference dose that is usually intravenous. Turning to `CC(C)NCC(O)COc1cccc2ccccc12` (centres unmarked) [Propranolol, propranolol], the Tmax in “in vivo” (iv) is 0.05 h. In “in vivo” (po), the highest level (Cmax) was 3 ng/mL, the Tmax is 2 h and the bioavailability at 8 h worked out at 4%. The compound also showed an AUC/IV-AUC in series [1] of 1.00.

Source of the values: patent US5455286A, “Bioactive composition” (priority 1994, dated 1995).
